The target in the assay is human, KCNT1 (Homo sapiens (Human), UniProt Q5JUK3). In words: FLIPR Tl/K Flux Assay. In kind it is cell-based. To be noted: HEK293 cells stably expressing human KCNT1; Tl+ flux stimulated with EC80 of agonist Loxapine. The method in brief:
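HEK293 cells stably expressing human KCNT1 were loaded with FLIPR potassium dye in HEPES/HBSS pH 7.4 with 5 mM probenecid, 1 h at 25 °C, then given test compound for 30 min at 25 °C. Tl+ flux was triggered with chloride-free buffer containing Tl+ and EC80 loxapine and read 160 s. IC50 came from Hill fits of % inhibition.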
Sequence of human, KCNT1 (Q5JUK3 whole entry): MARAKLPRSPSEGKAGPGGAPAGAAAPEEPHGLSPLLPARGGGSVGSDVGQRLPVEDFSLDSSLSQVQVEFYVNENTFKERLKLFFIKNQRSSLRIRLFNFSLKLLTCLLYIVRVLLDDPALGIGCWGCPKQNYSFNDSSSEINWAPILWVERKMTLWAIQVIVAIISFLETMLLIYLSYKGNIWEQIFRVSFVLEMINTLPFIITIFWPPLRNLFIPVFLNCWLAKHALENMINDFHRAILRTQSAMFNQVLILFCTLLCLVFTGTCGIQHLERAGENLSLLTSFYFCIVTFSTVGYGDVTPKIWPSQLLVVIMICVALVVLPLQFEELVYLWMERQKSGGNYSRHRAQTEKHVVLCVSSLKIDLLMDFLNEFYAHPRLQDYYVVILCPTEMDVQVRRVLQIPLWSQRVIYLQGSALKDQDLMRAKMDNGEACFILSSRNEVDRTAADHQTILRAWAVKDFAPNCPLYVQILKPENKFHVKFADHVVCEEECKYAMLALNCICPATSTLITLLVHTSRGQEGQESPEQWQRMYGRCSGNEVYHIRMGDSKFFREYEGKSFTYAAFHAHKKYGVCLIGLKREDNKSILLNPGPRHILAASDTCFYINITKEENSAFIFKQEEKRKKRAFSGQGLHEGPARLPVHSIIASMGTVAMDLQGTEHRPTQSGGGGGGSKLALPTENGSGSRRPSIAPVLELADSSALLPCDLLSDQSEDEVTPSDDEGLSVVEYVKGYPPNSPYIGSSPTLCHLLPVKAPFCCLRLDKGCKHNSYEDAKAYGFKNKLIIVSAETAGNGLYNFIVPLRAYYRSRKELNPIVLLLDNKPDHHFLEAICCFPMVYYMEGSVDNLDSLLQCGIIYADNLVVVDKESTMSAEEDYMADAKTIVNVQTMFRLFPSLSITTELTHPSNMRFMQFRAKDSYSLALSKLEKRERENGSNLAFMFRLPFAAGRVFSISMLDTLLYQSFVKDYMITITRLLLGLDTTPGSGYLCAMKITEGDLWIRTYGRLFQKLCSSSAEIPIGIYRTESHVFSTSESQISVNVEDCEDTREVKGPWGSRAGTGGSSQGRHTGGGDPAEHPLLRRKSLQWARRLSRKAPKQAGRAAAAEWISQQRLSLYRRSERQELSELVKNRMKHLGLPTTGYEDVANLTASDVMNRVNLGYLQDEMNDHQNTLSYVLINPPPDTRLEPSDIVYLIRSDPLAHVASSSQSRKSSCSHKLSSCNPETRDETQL
Regarding `Cn1nc(C(F)(F)F)nc1C(=O)N[C@H]1CCn2nc(-c3cc(C(F)(F)F)ncc3Cl)cc21` [Compound I-142a, (S)-N-(2-(5-Chloro-2-(trifluoromethyl)pyridin-4-yl)-5,6-dihydro-4H-pyrrolo[1,2-b]pyrazol-4-yl)-1-methyl-3-(trifluoromethyl)-1H-1,2,4-triazole-5-carboxamide], the IC50 (commonly the concentration that gives 50% inhibition) was less than 0.25 µM.
For the compound `COc1cc(-c2nc3c(o2)[C@@H](NC(=O)c2cncc(C(F)(F)F)n2)CCC3)ccn1` [Compound I-143a, (S)-N-(2-(2-Methoxypyridin-4-yl)-4,5,6,7-tetrahydrobenzo[d]oxazol-7-yl)-6-(trifluoromethyl)pyrazine-2-carboxamide], the IC50 is greater than 1 µM.
The figure for `Cc1cnc(C(F)(F)F)cc1-c1cc2n(n1)CC[C@@H]2NC(=O)c1cccc(C#N)c1` [Compound I-144a, (S)-3-Cyano-N-(2-(5-methyl-2-(trifluoromethyl)pyridin-4-yl)-5,6-dihydro-4H-pyrrolo[1,2-b]pyrazol-4-yl)benzamide] is less than 0.25 µM.
The figure for `COc1cc(C(=O)N[C@H]2CCn3nc(-c4cc(C(F)(F)F)ncc4F)cc32)ccn1` [Compound I-145a, (S)—N-(2-(5-Fluoro-2-(trifluoromethyl)pyridin-4-yl)-5,6-dihydro-4H-pyrrolo[1,2-b]pyrazol-4-yl)-2-methoxyisonicotinamide] is less than 0.25 µM; for `Cn1nc(C(F)(F)F)nc1C(=O)N[C@H]1CCn2nc(-c3ccnc(C(C)(F)F)c3)cc21` [Compound I-146a, (S)—N-(2-(2-(1,1-Difluoroethyl)pyridin-4-yl)-5,6-dihydro-4H-pyrrolo[1,2-b]pyrazol-4-yl)-1-methyl-3-(trifluoromethyl)-1H-1,2,4-triazole-5-carboxamide] it is less than 0.25 µM; for `O=C(N[C@H]1CCn2nc(-c3ccnc(C(F)(F)F)c3)cc21)C1CC(C(F)(F)F)C1` (stereo partly drawn) [Compound I-147a, (S)-3-(Trifluoromethyl)-N-(2-(2-(trifluoromethyl)pyridin-4-yl)-5,6-dihydro-4H-pyrrolo[1,2-b]pyrazol-4-yl)cyclobutane-1-carboxamide] it is less than 0.25 µM.
To `COc1cc(-c2nc3c(o2)[C@@H](NC(=O)c2cc(Cl)cc(Cl)c2)CCC3)ccn1` [Compound I-150a, (S)-3,5-Dichloro-N-(2-(2-methoxypyridin-4-yl)-4,5,6,7-tetrahydrobenzo[d]oxazol-7-yl)benzamide] belongs less than 0.25 µM; to `COc1cc(-c2nc3c(o2)[C@@H](NC(=O)c2cccc(OC(F)(F)F)c2)CCC3)ccn1` [Compound I-151a, (S)-N-(2-(2-Methoxypyridin-4-yl)-4,5,6,7-tetrahydrobenzo[d]oxazol-7-yl)-3-(trifluoromethoxy)benzamide], less than 0.25 µM.
`O=C(N[C@H]1CCCc2nc(-c3ccnc(C4CC4)c3)oc21)c1cncc(C(F)(F)F)n1` [Compound I-152a, (S)-N-(2-(2-Cyclopropylpyridin-4-yl)-4,5,6,7-tetrahydrobenzo[d]oxazol-7-yl)-6-(trifluoromethyl)pyrazine-2-carboxamide] showed an IC50 of less than 0.25 µM.
To `O=C(N[C@H]1CCCc2nc(-c3ccnc(C4CC4)c3)oc21)c1cc(Cl)cc(Cl)c1` [Compound I-153a, (S)-3,5-Dichloro-N-(2-(2-cyclopropylpyridin-4-yl)-4,5,6,7-tetrahydrobenzo[d]oxazol-7-yl)benzamide] belongs less than 0.25 µM; to `Cn1nc(C(F)F)nc1C(=O)N[C@H]1CCn2nc(-c3ccnc(C(F)(F)F)c3)cc21` [Compound I-155a, (S)-3-(Difluoromethyl)-1-methyl-N-(2-(2-(trifluoromethyl)pyridin-4-yl)-5,6-dihydro-4H-pyrrolo[1,2-b]pyrazol-4-yl)-1H-1,2,4-triazole-5-carboxamide], less than 0.25 µM; to `O=C(N[C@H]1CCCc2nc(-c3cc(C4CC4)ncc3F)oc21)c1cncc(C(F)(F)F)n1` [Compound I-156a], less than 0.25 µM.
The figure for `O=C(N[C@H]1CCCc2nc(-c3cc(C4CC4)ncc3F)oc21)c1cc(Cl)cc(Cl)c1` [Compound I-157a, (S)-3,5-Dichloro-N-(2-(2-cyclopropyl-5-fluoropyridin-4-yl)-4,5,6,7-tetrahydrobenzo[d]oxazol-7-yl)benzamide] is less than 0.25 µM; for `O=C(N[C@H]1CCCc2nc(-c3cc(C4CC4)ncc3F)oc21)c1ccnc(OC(F)(F)F)c1` [Compound I-158a, (S)-N-(2-(2-Cyclopropyl-5-fluoropyridin-4-yl)-4,5,6,7-tetrahydrobenzo[d]oxazol-7-yl)-2-(trifluoromethoxy)isonicotinamide] it is less than 0.25 µM.
The figure for `O=C(N[C@H]1CCCc2nc(-c3cc(C4CC4)ncc3F)oc21)c1cccc(OC(F)(F)F)c1` [Compound I-159a, (S)-N-(2-(2-Cyclopropyl-5-fluoropyridin-4-yl)-4,5,6,7-tetrahydrobenzo[d]oxazol-7-yl)-3-(trifluoromethoxy)benzamide] is less than 0.25 µM.
Consider `N#Cc1cccc(C(=O)N[C@H]2CCCCc3oc(-c4ccnc(C(F)(F)F)c4)nc32)c1` [Compound I-160a, (S)-3-cyano-N-(2-(2-(trifluoromethyl)pyridin-4-yl)-5,6,7,8-tetrahydro-4H-cyclohepta[d]oxazol-4-yl)benzamide], for which the IC50 was less than 0.25 µM.
To `N#Cc1cccc(C(=O)N[C@@H]2CCCCc3oc(-c4ccnc(C(F)(F)F)c4)nc32)c1` [Compound I-160b, (R)-3-cyano-N-(2-(2-(trifluoromethyl)pyridin-4-yl)-5,6,7,8-tetrahydro-4H-cyclohepta[d]oxazol-4-yl)benzamide] belongs less than 0.25 µM.
To `COc1cc(-c2nc3c(o2)[C@@H](NC(=O)c2cncc(C(F)(F)F)n2)CCC3)c(Cl)cn1` [Compound I-161a, (S)-N-(2-(5-Chloro-2-methoxypyridin-4-yl)-4,5,6,7-tetrahydrobenzo[d]oxazol-7-yl)-6-(trifluoromethyl)pyrazine-2-carboxamide] belongs 0.25 to 0.5 µM; to `COc1cc(-c2nc3c(o2)[C@@H](NC(=O)c2cc(Cl)cc(Cl)c2)CCC3)c(Cl)cn1` [Compound I-162a, (S)-3,5-Dichloro-N-(2-(5-chloro-2-methoxypyridin-4-yl)-4,5,6,7-tetrahydrobenzo[d]oxazol-7-yl)benzamide], less than 0.25 µM; to `COc1cc(-c2nc3c(o2)[C@@H](NC(=O)c2ccnc(OC(F)(F)F)c2)CCC3)c(Cl)cn1` [Compound I-163a], less than 0.25 µM.
To `COc1cc(-c2nc3c(o2)[C@@H](NC(=O)c2cccc(OC(F)(F)F)c2)CCC3)c(Cl)cn1` [Compound I-164a, (S)-N-(2-(5-Chloro-2-methoxypyridin-4-yl)-4,5,6,7-tetrahydrobenzo[d]oxazol-7-yl)-3-(trifluoromethoxy)benzamide] belongs less than 0.25 µM; to `O=C(N[C@H]1CCCc2nc(-c3cc(C4CC4)ncc3F)oc21)c1cccc(C(F)(F)F)c1` [Compound I-165a, (S)-N-(2-(2-Cyclopropyl-5-fluoropyridin-4-yl)-4,5,6,7-tetrahydrobenzo[d]oxazol-7-yl)-3-(trifluoromethyl)benzamide], less than 0.25 µM.
As for `Cn1nc(C(F)(F)F)cc1C(=O)N[C@H]1CCCc2nc(-c3cc(C4CC4)ncc3F)oc21` [Compound I-166a, (S)—N-(2-(2-Cyclopropyl-5-fluoropyridin-4-yl)-4,5,6,7-tetrahydrobenzo[d]oxazol-7-yl)-1-methyl-3-(trifluoromethyl)-1H-pyrazole-5-carboxamide], the IC50 is less than 0.25 µM.

The values above are taken from patent publication US20250313548A1 (Actio Biosciences, Inc., priority 2023, published 2025).
